In patent US20230348362A1, “LIPID COMPOUNDS AND LIPID NANOPARTICLE COMPOSITIONS” (Suzhou Abogen Biosciences Co., Ltd., priority 2021, published 2023):

Assays:
Assay type in all cases: physicochemical
[1] = Lipid nanoparticle size and polydispersity by dynamic light scattering; details: LNP of lipid/DSPC/cholesterol/PEG-lipid 50:10:38.5:1.5 encapsulating hEPO mRNA
Outline: (§1)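 LNPs made from ionizable lipid/DSPC/cholesterol/PEG-lipid (50:10:38.5:1.5) and mRNA in citrate pH 4 by microfluidic mixing, lipid:mRNA about 10:1–30:1 w/w, then dialysed into DPBS and filtered. Size and PDI measured by DLS in backscatter mode; encapsulation efficiency measured by RiboGreen assay.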

[2] = Encapsulation efficiency of lipid nanoparticles, Quant-it Ribogreen RNA assay; details: LNP of lipid/DSPC/cholesterol/PEG-lipid 50:10:38.5:1.5 encapsulating hEPO mRNA
Outline: as §1

[3] = Apparent pKa of LNP formulations, TNS fluorescence assay; details: LNP cationic lipid/DSPC/cholesterol/DMG-PEG 50/10/38.5/1.5 mol %
Outline: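 LNPs (cationic lipid/DSPC/cholesterol/DMG-PEG 50/10/38.5/1.5 mol %) diluted to 0.1 mg/mL total lipid in citrate/phosphate/borate/NaCl buffers spanning pH 3–9 with TNS. Fluorescence (ex 325, em 435 nm) read at room temperature; pKa taken as the pH at half-maximal intensity from sigmoidal fit.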

| Structure (SMILES) | polydispersity [1] | size (nm) [1] [nm] | Encapsulation Efficiency [2] [%] | Apparent Pka [3] |
| --- | --- | --- | --- | --- |
| CCCCCCCCC(CCCCCCCC)COC(=O)OCCCCCN(CCO)CCN(CCCCCNC(=O)CC(CCCCCC)CCCCCCCC)C1CCCCCC1 (centres unmarked) [Compound 153] | 0.048 | 73.95 | 93.09 | 6.437 |
| CCCCCCCC(=O)OCC(CCCCN(CCO)CCCCN(CCCCC(COC(=O)CCCCCCC)COC(=O)CCCCCCC)C1CCC1)COC(=O)CCCCCCC [Compound 219] | 0.103 | 91.17 | 94.13 | 6.327 |
| CCCCCCCCCCCOC(=O)CCCCCN(CCN(CCO)CCCCCC(=O)C(CCCCCC)CCCCCCCCC)C1CCCCC1 (centres unmarked) [Compound 46] | 0.042 | 64.14 | 90.3 | 6.335 |
| CCCCCCCCC(CCCCCCCC)COC(=O)CCCCCN(CCO)CCN(CCCCCCOC(=O)C(CCCCCCCC)CCCCCCCC)C1CCC1 [Compound 84] | 0.097 | 59.91 | 91.88 | 6.117 |
| CCCCCCCCC(CCCCCCCC)COC(=O)CCCCCN(CCO)CCN(CCCCCOC(=O)CCCCCC(CCCCCC)CCCCCC)C1CCC1 [Compound 83] | 0.032 | 87.87 | 92.51 | 6.233 |
| CCCCCCCCC(CCCCCC)CNC(=O)CCCCCN(CCCCN(CCO)CCCCC(COC(=O)CCCCCCC)COC(=O)CCCCCCC)C1CCCCCC1 (centres unmarked) [Compound 198] | 0.069 | 96.11 | 88.41 | 6.984 |
| CCCCCCCCC(CCCCCCCC)CC(=O)NCCCCCN(CCN(CCO)CCCCCOC(=O)CC(CCCCCCCC)CCCCCCCC)C1CCCC1 [Compound 72] | 0.033 | 74.18 | 92.60 | 6.633 |
| CCCCCCCCOC(CCCCCN(CCO)CCN(CCCCCC(=O)OCC(CCCCCC)CCCCCCCC)C1CCC1)OCCCCCCCC (centres unmarked) [Compound 201] | 0.028 | 91.64 | 94.15 | 6.226 |
| CCCCCCCCC(CCCCCCCC)COC(=O)CCCCCN(CCO)CCN(CCCCCC(=O)OCC(CCCCCCCC)CCCCCCCC)C1CCC(F)(F)CC1 [Compound 66] | 0.068 | 56.3 | 93.17 | 6.009 |
| CCCCCCCCC(CCCCCCCC)COC(=O)CCCCCN(CCO)CCN(CCCCCC(=O)OCC(CCCCCCCC)CCCCCCCC)CC1CCCC1 [Compound 35] | 0.089 | 54.18 | 90.0 | 5.843 |
| CCCCCCCCC(CCCCCC)CNC(=O)CCCCN(CCO)CCN(CCCCC(COC(=O)CCCCCCC)COC(=O)CCCCCCC)C1CCCC1 (centres unmarked) [Compound 227] | 0.048 | 83.54 | 91.70 | 6.872 |
| CCCCCCCCC(CCCCCCCC)COC(=O)CCCCCN(CCO)CCN(CCCCCC(=O)OCC(CCCCCCCC)CCCCCCCC)C1CCC(C)CC1 (centres unmarked) [Compound 40] | 0.03 | 52.06 | 87.1 | 5.838 |
| CCCCCCCCC(CCCCCCCC)COC(=O)CCCCCN(CCO)CCN(CCCCCC(=O)OCCCCCC)C1CCCCC1 [Compound 101] | 0.078 | 98.67 | 87.20 | 6.423 |
| CCCCCCCCCCCOC(=O)CCCCCN(CCN(CCO)CCCCCC(=O)OCC(CCCCCC)CCCCCCCC)C1CCC1 (centres unmarked) [Compound 4] | 0.076 | 90.8 | 91.9 | 6.709 |
| CCCCCCCCC(=O)OCC(CCCCN(CCO)CCN(CCCCC(COC(=O)CCCCCCCC)COC(=O)CCCCCCCC)C1CCC1)COC(=O)CCCCCCCC [Compound 166] | 0.092 | 75.12 | 92.85 | 6.513 |
| CCCCCCCCC(CCCCCC)COC(=O)CCCCCN(CCO)CCN(CCCCCC(=O)OCC(CCCCCC)CCCCCCCC)C1CCCCCC1 (centres unmarked) [Compound 24] | 0.114 | 57.78 | 93.90 | 6.162 |
| CCCCCCCCC(CCCCCCCC)COC(=O)CCOCCN(CCO)CCN(CCOCCC(=O)OCC(CCCCCCCC)CCCCCCCC)C1CCC1 [Compound 112] | 0.059 | 77.33 | 93.15 | 6.343 |
| CCCCCCCCC(CCCCCCCC)COC(=O)CCCCCN(C)C1CCC(N(CCO)CCCCCC(=O)OCC(CCCCCCCC)CCCCCCCC)CC1 (centres unmarked) [Compound 64] | 0.177 | 81.36 | 97.95 | 7.262 |
| CCCCCCCCC(CCCCCC)CNC(=O)CCCCCN(CCOCCO)CCN(CCCCC(COC(=O)CCCCCCC)COC(=O)CCCCCCC)C1CCCCCCC1 (centres unmarked) [Compound 208] | 0.053 | 85.95 | 86.63 | 6.691 |
| CCCCCCCCC(CCCCCCCC)CNC(=O)CCCCCN(CC=C(C)C)CCN(CCO)CCCCCC(=O)NCC(CCCCCCCC)CCCCCCCC [Compound 122] | 0.066 | 65.77 | 93.47 | 6.817 |
| CCCCCCCCC(CCCCCC)CNC(=O)CCCCCN(CCOCCO)CCN(CCCCC(COC(=O)CCCCCCC)COC(=O)CCCCCCC)C1CCCC1 (centres unmarked) [Compound 205] | 0.023 | 104.3 | 81.79 | 6.917 |
| CCCCCCCCC(CCCCCCCC)COC(=O)CCCCCN(CCC)CCN(CCO)CCCCCC(=O)OCC(CCCCCCCC)CCCCCCCC [Compound 32] | 0.04 | 57.09 | 92.1 | 6.378 |
| CCCCCCCCC(CCCCCCCC)CNC(=O)CCCCCN(CCN(CCCO)CCCCCC(=O)OCC(CCCCCCCC)CCCCCCCC)C1CCC1 [Compound 76] | 0.036 | 84.12 | 92.30 | 6.322 |
| CCCCCCCCC(CCCCCCCC)COC(=O)CCCCCN(CCN(CCCCCC(=O)OCC(CCCCCCCC)CCCCCCCC)C1CCC(O)CC1)C1CCC1 (centres unmarked) [Compound 55] | 0.071 | 83.97 | 95.6 | 5.951 |
| CCCCCCCCC(CCCCCCCC)COC(=O)CCCCCN(CC)CCN(CCO)CCCCCC(=O)OCC(CCCCCCCC)CCCCCCCC [Compound 27] | 0.118 | 57.08 | 95.20 | 6.858 |
| CCCCCCCCCCCCCCN(CCCCCCCCCCCCCC)C(=O)CCCCCN(CCO)CCN(CCCCCC(=O)OCCCCCCCCCCC)C1CCCCC1 [Compound 89] | 0.086 | 81.46 | 89.05 | 6.745 |
| CCCCCCCCC(CCCCCCCC)COC(=O)CCCCCN(CCN(CCO)CCOCCC(=O)OCC(CCCCCCCC)CCCCCCCC)C1CCCCC1 [Compound 111] | 0.069 | 76.24 | 92.05 | 6.108 |
| CCCCCCCCC(CCCCCC)CNC(=O)CCCCCN(CCCCN(CCO)CCCCC(COC(=O)CCCCCCC)COC(=O)CCCCCCC)C1CCCCCCC1 (centres unmarked) [Compound 199] | 0.162 | 80.14 | 94.30 | 6.858 |
| CCCCCCCCC(CCCCCCCC)COC(=O)CCCCCN(CC=C(C)C)CCN(CCO)CCCCCC(=O)OCC(CCCCCCCC)CCCCCCCC [Compound 42] | 0.046 | 66.04 | 90.1 | 6.159 |
